These are literature values, as cited in EP4640076A1, “ORAL PRODUCT WITH FLAVOR EMULSION” (Nicoventures Trading Limited, priority 2024, dated 2025).

SMILES strings stand for the structures. Read-outs that look alike come from different tables or passages of the source.

The conditions of data set [1]: at 25°C; heptanal.

As to `Oc1ccc(/C=C/c2cc(O)cc(O)c2)cc1` [Resveratrol, 3,5,4'-trihydroxy-trans-stilbene], the lipophilicity (logP) (resveratrol) is 3.1.
`CCCCCCC=O` [heptanal]: the vapor pressure in data set [1] is reported as 3.85 mm Hg. The logP (heptanal) is 2.44.

What is called logP is the decadic logarithm of the partition coefficient of the neutral form, usually between octanol and water.
